The text below walks through data of the NIST ThermoML archive (doi:10.1016/j.fluid.2007.07.039).

Structures are written as SMILES.

The data set in a line: xn = mol fraction of the nth substance listed. To be noted: Liquid, Taylor dispersion method, x1 = 0.

With `C=Cc1cccc(C=C)c1` [1,3-diethenylbenzene] + O=C=O, the binary diffusion coefficient is 1.03e-08 m2/s (313.16 K, 15000 kPa); 9.44e-09 m2/s (313.16 K, 20000 kPa); 8.69e-09 m2/s (313.16 K, 25000 kPa); 8.07e-09 m2/s (313.16 K, 30000 kPa); 7.69e-09 m2/s (313.16 K, 35000 kPa); 1.28e-08 m2/s (323.16 K, 15000 kPa). The binary diffusion coefficient was 1.06e-08 m2/s (323.16 K, 20000 kPa); 9.71e-09 m2/s (323.16 K, 25000 kPa); 8.94e-09 m2/s (323.16 K, 30000 kPa); 8.54e-09 m2/s (323.16 K, 35000 kPa); 1.51e-08 m2/s (333.16 K, 15000 kPa); 1.21e-08 m2/s (333.16 K, 20000 kPa). The binary diffusion coefficient (333.16 K, 25000 kPa) turned out to be 1.11e-08 m2/s; the binary diffusion coefficient (333.16 K, 30000 kPa) turned out to be 9.95e-09 m2/s; the binary diffusion coefficient (333.16 K, 35000 kPa) came out at 9.47e-09 m2/s.

In the case of `COc1ccccc1Br` [1-bromo-2-methoxybenzene] + O=C=O, the binary diffusion coefficient was 9.46e-09 m2/s (313.16 K, 15000 kPa); 8.66e-09 m2/s (313.16 K, 20000 kPa); 7.92e-09 m2/s (313.16 K, 25000 kPa); 7.48e-09 m2/s (313.16 K, 30000 kPa); 7.15e-09 m2/s (313.16 K, 35000 kPa); 1.15e-08 m2/s (323.16 K, 15000 kPa). Besides, the binary diffusion coefficient came out at 1.01e-08 m2/s (323.16 K, 20000 kPa); 9.08e-09 m2/s (323.16 K, 25000 kPa); 8.52e-09 m2/s (323.16 K, 30000 kPa); 7.98e-09 m2/s (323.16 K, 35000 kPa); 1.28e-08 m2/s (333.16 K, 15000 kPa); 1.19e-08 m2/s (333.16 K, 20000 kPa). The binary diffusion coefficient came to 1.06e-08 m2/s (333.16 K, 25000 kPa); 9.45e-09 m2/s (333.16 K, 30000 kPa); 8.98e-09 m2/s (333.16 K, 35000 kPa).

As to `COc1ccccc1F` [2-fluoroanisole] + O=C=O, the binary diffusion coefficient is 1.02e-08 m2/s (313.16 K, 15000 kPa); 9.27e-09 m2/s (313.16 K, 20000 kPa); 8.69e-09 m2/s (313.16 K, 25000 kPa); 8.01e-09 m2/s (313.16 K, 30000 kPa); 7.68e-09 m2/s (313.16 K, 35000 kPa); 1.25e-08 m2/s (323.16 K, 15000 kPa). In addition, the binary diffusion coefficient was 1.05e-08 m2/s (323.16 K, 20000 kPa); 9.89e-09 m2/s (323.16 K, 25000 kPa); 9.14e-09 m2/s (323.16 K, 30000 kPa); 8.65e-09 m2/s (323.16 K, 35000 kPa); 1.43e-08 m2/s (333.16 K, 15000 kPa); 1.23e-08 m2/s (333.16 K, 20000 kPa). For the same compound, the binary diffusion coefficient turned out to be 1.1e-08 m2/s (333.16 K, 25000 kPa); 1.03e-08 m2/s (333.16 K, 30000 kPa); 9.67e-09 m2/s (333.16 K, 35000 kPa).

Turning to `C=CCc1ccccc1` [2-propenylbenzene] + O=C=O, the binary diffusion coefficient (313.16 K, 15000 kPa) amounted to 1.03e-08 m2/s; the binary diffusion coefficient (313.16 K, 20000 kPa) turned out to be 9.11e-09 m2/s; the binary diffusion coefficient (313.16 K, 25000 kPa) stood at 8.93e-09 m2/s; the binary diffusion coefficient (313.16 K, 30000 kPa) turned out to be 8.29e-09 m2/s; the binary diffusion coefficient (313.16 K, 35000 kPa) stood at 7.67e-09 m2/s; the binary diffusion coefficient (323.16 K, 15000 kPa) amounted to 1.23e-08 m2/s. The binary diffusion coefficient is, setting by setting: (323.16 K, 20000 kPa) 1.12e-08 m2/s; (323.16 K, 25000 kPa) 1e-08 m2/s; (323.16 K, 30000 kPa) 9.35e-09 m2/s; (323.16 K, 35000 kPa) 9.01e-09 m2/s; (333.16 K, 15000 kPa) 1.41e-08 m2/s; (333.16 K, 20000 kPa) 1.22e-08 m2/s. Also, the binary diffusion coefficient was found to be 1.15e-08 m2/s (333.16 K, 25000 kPa); 1.05e-08 m2/s (333.16 K, 30000 kPa); 9.87e-09 m2/s (333.16 K, 35000 kPa).
